A melting point compilation (Tetko et al.; mined from patent text by program, amines drawn as free bases though some values may be those of a salt)

SMILES | melting point [°C]
COC(=O)c1nc(SC(F)(F)F)c(N)nc1N | 151 to 155
CCOc1cc(C(CC(C)=O)N2C(=O)c3cccc(NC(C)=O)c3C2=O)ccc1OC (stereo not drawn) | 128 to 129
CCOC(=O)C1=C(Cl)/C(=N/OS(C)(=O)=O)CC(c2ccc(Cl)c(OC)c2F)N1 (stereo not drawn) | 60 to 62
CCCCOCCOc1ccc(-c2ccc3c(c2)C=C(C(=O)OC)CCN3c2ccc(S(=O)(=O)NC)cc2)cc1 | 142 to 146
N#Cc1cc(-c2ccccc2)c(=O)n2c1-c1ccccc1CC2 | 204 to 205
CN(CCOc1ccc(CC2SC(=O)NC2=O)cc1)c1ncccn1 (stereo not drawn) | 150 to 151
OCCN1CCN(c2nn(-c3ccc(C(F)(F)F)cc3)c3ccccc23)CC1 | 82 to 84
Oc1ccc(Nc2nc(NCc3ccco3)nc(Nc3ccc(Br)cc3)n2)cc1 | 37 to 39
COC(=O)c1cc(-c2ccc(OC)c(F)c2)nn(CC=Cc2ccc(Cl)cc2)c1=O | 131 to 132
COc1ccc(-c2sc3cc(OC)ccc3c2C(=O)O)cc1 | 166 to 170
N#Cc1cccc(C(=O)N2CCN(c3ccc(NC(=O)c4ccccc4-c4ccc(C(F)(F)F)cc4)cc3)CC2)c1 | 178 to 180
CC(Oc1ccc(COc2ccc(Cl)cc2Cl)cc1)C(=O)O (stereo not drawn) | 122 to 123
CC#COc1ccc2c(=O)c(C)c(-c3ccccc3)oc2c1 | 179 to 180
C=C(C)C(=O)NC1=CC(O)(C(C)=O)C(C(=O)O)C=C1 (stereo not drawn) | 178
CC(C)(CN)Nc1ncc2ncnc(Nc3ccc(F)c(Cl)c3)c2n1 | 196 to 201
COc1ccc2c(n1)c(CC[N+](=O)[O-])c1n2Cc2ccccc2-1 | 127 to 128
Cc1nc2ccnn2c(=O)[nH]1 | 268
CC(CCC(=O)c1ccccc1)C1CC=C2C3=C(CCC21C)C1(C)CCC(O)C(C)(C)C1CC3 (stereo not drawn) | 196 to 199
CCC(CC)(Cc1ccc(Cl)cc1)C(O)c1cccnc1 (stereo not drawn) | 128 to 129
Nc1ccc(-c2cc3c(N4CCCc5ccccc54)ncnc3[nH]2)cc1 | 243 to 245
CN(C)c1ncnc2[nH]c(-c3ccc(CO)cc3)cc12 | 306 to 309
COc1ccc(C2CNC(=O)C2)cc1OCCN1CCN(c2ccccc2)CC1 (stereo not drawn) | 140 to 141
CS(=O)(=O)c1ccc(Oc2ccc([N+](=O)[O-])c(NCCC(N)=O)c2)c(Cl)c1 | 135
CCOC(=O)C=C(C)c1ccc([N+](=O)[O-])cc1 | 71 to 74

SMILES | melting point [°C]
O=C(O)C(CN1C(=O)CNC1=O)CS(=O)(=O)c1ccc(-c2ccc(Cl)cc2)cc1 (stereo not drawn) | 188 to 190
COC(=O)Cc1ccccc1OCc1ccc(N(Cc2nc(-c3ccccc3)oc2C)C(=O)OC(C)(C)C)cc1 | 85 to 86
CCCCCCCCCCCCCCOc1ccc(CNc2ccccc2CO)cc1 | 72 to 75
CCOc1cc(Cl)ccc1-c1nc2n(C3CCCC3)[nH]c(CC)c-2c(=O)n1 | 185 to 187
CCOC(=O)C1=C(C)NC(=S)N(C(=O)OCC)C1c1cccc(OCc2ccccc2)c1 (stereo not drawn) | 119 to 121
CC1(C)CC1C(=O)NC(=CCCCCCBr)C(=O)O (stereo not drawn) | 151 to 153
CC(C)(C)OC(=O)NCC(O)(CNCC(O)C(Cc1ccccc1)NC(=O)OC(C)(C)C)Cc1ccccc1 (stereo not drawn) | 65 to 67
CCOC(=O)c1oc2ccc(OC)cc2c1OCC | 50 to 51
Cc1cc(-c2cncc(OC3SCC(O)C(O)C3O)c2)ccc1C#N (stereo not drawn) | 198 to 200
CCOC(=O)c1ccc(N(CC)Cc2ccc(Cl)cc2)cc1 | 48 to 50
N#CCc1c[nH]c2ccc(NC(N)=O)cc12 | 200 to 204
CNC(=O)c1ccc(-c2ccc3oc(C4CCN(C(=O)OC(C)C)CC4)nc3c2)cn1 | 158 to 161
COC(=O)CCCCCCCCCCCCCCCCCCCCCOS(=O)(=O)c1ccc(C)cc1 | 74 to 76
CC(C)n1nc(-c2sc(NC(=O)c3ccc(CNCCN4CCCCC4)cc3)nc2-c2ccccc2)ccc1=O | 134 to 136
Cc1nn(-c2cc(OC(C)C)c(Cl)cc2Cl)c(C)c1C | 56 to 58
O=c1[nH]cnc2c1ncn2[C@@H]1CO[C@H](CO)C1 | 98
CCCCN(CCCC)c1ccc(C=Cc2ccc(C=CC3=C(C#N)C(=C(C#N)C#N)OC3(C)C)cc2)c(OC)c1 | 258 to 260
CC(c1ccccc1)n1cncc1C(=O)O (single isomer, unassigned; (-)) | 155
CC(C)Cn1cc(F)c(NCc2ccccc2F)nc1=O | 118 to 119
Nc1ccccc1CNC(=O)C1Cc2ccccc2N1S(=O)(=O)c1ccc(-c2ccc(F)cc2F)cc1 (stereo not drawn) | 93 to 96
OCc1ccc(Cl)cc1Cc1ccccc1 | 46.5 to 49
O=C(Nc1ccc(Br)cc1)C(=O)N1CCC(Cc2ccc(F)cc2)CC1 | 156 to 158
CCOC(=O)c1c(CN(C)C2CCCCC2)nc2cc(OC)c(OC)cc2c1-c1ccc(OC)c(OC)c1 | 172 to 174
COc1cc(C(=O)CSCC2CCCCC2)c(OC)cc1Cl | 51 to 53
